Paper PMC4741889, “Ligand-based chemoinformatic discovery of a novel small molecule inhibitor targeting CDC25 dual specificity phosphatases and displaying in vitro efficacy against melanoma cells” (Oncotarget, 2015)

What was measured:
CDC25B protein levels = assay: Western blotting of CDC25B protein levels in A2058 cells; assay type: cell-based, human; settings: A2058, 100 μM, up to 16 h
Procedure: To better investigate the effect of this inhibitor at the molecular level, we evaluated if the treatment of A2058 cells with 7 affected also the protein levels of the three CDC25 forms. […] On the other hand, the protein levels of CDC25B were unaffected by treatment of A2058 cells with 7 up to 16 h.
A2058 cells were seeded into 6-well-plates (3 × 10^5 cells/plate) for 24 h at 37°C and then treated at different times with 100 μM compound 7 or 0.5% DMSO. After treatment, cells were harvested, washed with PBS and then lysed in ice-cold modified radio immunoprecipitation assay (RIPA) buffer (50 mM Tris-HCl, pH 7.4, 150 mM NaCl, 1% Nonidet P-40, 0.25% sodium deoxycholate, 1 mM Na3VO4 and 1 mM NaF), supplemented with protease inhibitors and incubated for 30 min on ice. The supernatant obtained after centrifugation at 12,000 rpm for 30 min at 4°C constituted the total protein extract. The protein concentration was determined by the method of Bradford, using bovine serum albumin (BSA) as standard. Equal amounts of total protein extracts were used for Western blot analysis. […] Membranes were then analysed by an enhanced chemiluminescence reaction, using Super Signal West Pico kit (Pierce) according to manufacturer's instruction; signals were visualized by autoradiography.

p53 protein levels = assay: Western blotting of p53 protein levels in A2058 cells; assay type: cell-based, human; settings: A2058, 100 μM, 8 h; significant after 16 h
Procedure: The molecular mechanisms that regulate the cytotoxic potential of 7 in melanoma cells were further investigated through the evaluation of the activation state of protein kinase B (pAkt), one of the key proteins involved in the control and regulation of cell survival. To this aim, the protein levels of pAkt have been analyzed after 2- and 4-h incubation of A2058 cells with 7. […] It is known that Akt regulates the process of cell survival by phosphorylating different substrates, directly or indirectly involved in the apoptotic program. One of these targets is p53, a protein with a tumor-suppressor activity that regulates the cell cycle, as well as the expression of several genes involved in the apoptosis. […]
A2058 cells were seeded into 6-well-plates (3 × 10^5 cells/plate) for 24 h at 37°C and then treated at different times with 100 μM compound 7 or 0.5% DMSO. […] The protein concentration was determined by the method of Bradford, using bovine serum albumin (BSA) as standard. […] Membranes were then analysed by an enhanced chemiluminescence reaction, using Super Signal West Pico kit (Pierce) according to manufacturer's instruction; signals were visualized by autoradiography.

CDC25B = target: T1, CDC25B (Homo sapiens, UniProt P30305); assay: Ki from OMFP hydrolysis kinetics (Lineweaver-Burk), CDC25B; assay type: biochemical; settings: 10 nM CDC25B, 1–25 μM OMFP; mean ± S.E.
T1 construct: Recombinant forms of the catalytic domains of CDC25A, -B and -C were obtained through the vectors pET28a-CDC25A-cd, pET28a-CDC25B-cd and pET28a-CDC25C-cd; made in house
T1 sequence (P30305 431-538 limits assumed): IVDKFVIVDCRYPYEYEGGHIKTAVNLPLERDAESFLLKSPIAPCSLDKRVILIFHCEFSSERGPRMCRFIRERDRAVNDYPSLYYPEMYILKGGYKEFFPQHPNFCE
Procedure: To measure the inhibition constant (Ki) of the recombinant forms of CDC25A, -B and -C towards the various inhibitors, the affinity of the different forms of CDC25 towards OMFP was measured either in the absence or in the presence of fixed concentrations of the various inhibitors. The reaction mixture contained 20 nM CDC25A, or 10 nM CDC25B, or 40 nM CDC25C, and different concentrations of the various inhibitors in 500 μL final volume of 20 mM Tris-HCl, pH 7.8, 1 mM DTT. DMSO was used as vehicle control. The reaction started by the addition of 1–25 μM OMFP, and the rate of OMFP hydrolysis was measured as indicated before. The corresponding Lineweaver-Burk plots allowed the calculation of the KM for OMFP and of the Vmax of OMFP hydrolysis, expressed as a.u./minmax. […] The Ki values were obtained from the decrease of a.u./minmax in the presence of the inhibitor, according to the equation a.u./mimmax’ = a.u./mimmax/{1 + ([I]/Ki)}, where a.u./mimmax’ represents the Vmax measured in the presence of the concentration [I] of the inhibitor. The Ki values were obtained from at least three independent experiments and reported as mean ± S.E.

SAN cells = assay: Intracellular ROS level (DCFH-DA), SAN cells; assay type: cell-based, human; settings: SAN, then 100 μM 7 for 4 h
Procedure: The high redox reactivity of quinonoid molecules, like compound 7, could greatly perturb the intracellular redox state. […] The oxidant effect of 7 was also evaluated after cell pre-treatment with two antioxidant molecules, such as N-acetyl-cysteine (NAC) and the specific inhibitor of NADPH oxidase, apocynin. To this aim, A2058 and SAN cells were pre-incubated for 1 h with 10 mM NAC or 45 min with 0.5 mM apocynin and then treated for 4 h with 100 μM compound 7. […] The cytotoxic activity of 7 could be mediated by the observed increase of ROS level.
The intracellular ROS level was monitored using the oxidation-sensitive fluorescence probe DCFH-DA. Cells were seeded into 6-well-plates (3 × 10^5 cells/plate) for 24 h at 37°C and then treated at various times with 100 μM compound 7 or 0.5% DMSO. DCFH-DA was added in the dark at 10 μM final concentration 30-min before the end of each incubation; then, cells were collected, washed in PBS, and finally resuspended in 500 μL PBS for fluorimetric analysis. Measurements were realized in a Cary Eclipse fluorescence spectrophotometer (Varian); excitation and emission wavelengths were set at 485 nm and 530 nm, respectively; both excitation and emission slits were set at 10 nm. The effect of 7 on ROS production was also estimated after pretreatment of cells with 10 mM NAC for 1 h.
Supplementary Figure S5: ROS production and their involvement in the apoptotic process of SAN cells, as induced by treatment with compound 7. A. Time-dependent measurement of ROS production. Cells were incubated with 0.5% DMSO (open bars) or 100 μM compound 7 (black bars) and then the intracellular ROS level was measured. B. Effect of antioxidant molecules on ROS production. The ROS level was also measured in cells untreated or pretreated with NAC or apocynin after a 4-h incubation with DMSO or 7. C. Effect of NAC on apoptosis. The PI incorporation was evaluated in cells untreated or pretreated with NAC after a 48-h incubation with DMSO or 7. ROS production was expressed as a.u., and apoptosis as a percentage. […]

For `O=C(O)C1CCCCC1c1c2ccc(=O)cc-2oc2cc(O)ccc12` (centres unmarked) [Compound 7, 2-(6-hydroxy-3-oxo-3H-xanthen-9-yl)cyclohexanecarboxylic acid], the CDC25B protein levels (CDC25B protein levels) was “unaffected”, the p53 protein level (p53 protein levels) was “higher level of p53 compared to control” and the Ki (CDC25B) was 780 ± 30 nM. For the same compound, the “increase of ROS level after apocynin pre-treatment” value (SAN cells; 0.5 mM apocynin 45 min) was “did not prevent the increase of ROS level” and the “increase of ROS level after NAC pre-treatment” value (SAN cells; 10 mM NAC 1 h) was “prevented by the NAC treatment”.
